Test results published in US11325982B2, “Biparatopic and multiparatopic antibodies with common light chain and method of use” (XUANZHU BIOPHARMACEUTICAL CO., LTD., priority 2017, dated 2022).

Tested on: NCI-N87 cells
Assay: Inhibition of proliferation of NCI-N87 cells (CCK-8)
Format: cell-based
Conditions: 72 hours, FIG. 14
Experimental: The growth curve of NCI-N87 was initially determined by plating cells at various densities in 96-well tissue culture plates. Cells were gown in RPMI-1640 medium supplemented with 10% fetal bovine serum (FBS).
24 hours later, 10 μl of antibody construct diluted to various concentrations with the medium were added to the cell culture. After the cells were cultured for additional 72 hours, the cell proliferation rates were determined by adding 10 μl of CCK-8 reagent (Sigma). After 3 hour of incubation without light, the plates were read at OD450 nm. The wells without addition of antibody were set as 100% cell viability and Docetaxel was used as a positive control for cytotoxicity. The data were then fitted into 4-parameter sigmoidal curve to generate IC50. The samples were done in triplicate.

Substance | growth inhibition | growth inhibition effect compared with other antibodies
T51: Biparatopic Fab-Ig: Bip_mAb_HC11 (VH_Pert_T30A; VH_Tra_N54T/D98S) with Tra_LC_N30S_S56Y; Fc M428L | inhibited growth | had greater effect than pertuzumab (mAb T1) or trastuzumab (mAb T22)
T52: Biparatopic Fab-Ig: Bip_mAb_HC12 (VH_Pert_T30A/G56A; VH_Tra_N54T/D98S) with Tra_LC_N30S_S56Y | inhibited growth | had greater effect than pertuzumab (mAb T1) or trastuzumab (mAb T22)
T54: Biparatopic knob/hole heterodimer: HC14 (pert T30A) and HC15 (Tra N54T/D98S) with Tra_LC_N30S_S56Y | inhibited growth | had greater effect than pertuzumab (mAb T1) or trastuzumab (mAb T22)
pertuzumab [T1, reference compound] | minimal effect | somewhat greater effect
